Measurements: patent publication US20140018380A1, “BICYCLIC HETEROARYL COMPOUNDS AS GPR119 RECEPTOR AGONISTS” (CENTAURUS BIOPHARMA CO., LTD., priority 2011, published 2014)
pEC50: −log10 of the molar value.

Target: T1, human GPR119 (Homo sapiens, UniProt Q8TDV5)
T1 construct: host or cells: CHO cells (American Type Culture Collection)
T1 sequence (Q8TDV5 1-335): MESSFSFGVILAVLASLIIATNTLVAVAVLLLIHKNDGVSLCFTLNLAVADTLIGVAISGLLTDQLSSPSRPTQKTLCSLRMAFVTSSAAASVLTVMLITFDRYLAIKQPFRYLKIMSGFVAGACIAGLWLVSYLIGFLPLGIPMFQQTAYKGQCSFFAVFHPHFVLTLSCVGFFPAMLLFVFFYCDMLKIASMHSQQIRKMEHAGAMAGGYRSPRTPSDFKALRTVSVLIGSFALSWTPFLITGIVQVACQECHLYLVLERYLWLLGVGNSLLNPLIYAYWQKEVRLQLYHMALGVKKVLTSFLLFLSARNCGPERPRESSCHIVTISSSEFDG
Experiment: cAMP assay (HTRF) with human GPR119 stable transfected CHO cells
Format: cell-based
Conditions: functional agonist activity; intracellular cAMP (HTRF) in human GPR119 stable transfected CHO cells, 30 min at 37° C.
Protocol: Testing of Compounds of the Invention In Vitro (cAMP Assay)
The functional agonist activities of compounds of the invention were characterized using a cAMP assay with human GPR119 stable transfected Chinese hamster ovary (CHO) cells (American Type Culture Collection, Manassas Va., USA). CHO cells were stable transfected with GPR119/pcDNA3.0 (SC307189, Origene). Transfected cells were then selected and maintained in culture media containing […] geneticin. Stable clones were obtained by limiting dilution and the expression of human-GPR119 in CHO cells was confirmed by HTRF (Homogeneous Time-Resolved Fluorescence) cAMP assay. The clones generating the best agonist stimulated signal window were selected for the cAMP assay development.
The cells were cultured in Dulbecco's Modified Eagle Medium (Invitrogen Corporation, Carlsbad, Calif., USA) containing 10% Fetal bovine serum, 1% Pen/Strep and […] G418 and grown in 75 cm2 tissue culture flasks until they reached 75-80% confluence.
The cells were harvested 16 hours prior to assay with 1 ml 0.05% Trypsine, washed with PBS and then plated into 96-well plates (8000 cells/well) containing DMEM medium and 10% BSA. Prior to assay, the cells were washed with assay stimulation buffer (HBSS containing 10 mM IBMX, 20 mM HEPES, 0.1% BSA) twice. Then cells were incubated for 30 min at 37° C. in the absence or presence of varying concentrations of agonists (i.e., the compounds of the present invention) in assay stimulating buffer with 0.1% DMSO. The intracellular levels of cAMP generated in the GPR119 transfected CHO cells were measured using the HTRF kit (CisBio, FR.). In brief, 20 ul d2-labeled cAMP and 20 ul cryptated labeled anti-cAMP antibody were added into 40 ul cells treated with agonist and the plates were incubated for 1 hour at room temperature in the dark. Cells were then transferred into white 96-well plate and the signal generated was measured using Envision (Perkin-Elmer, Norwalk, Conn.). EC50 values were calculated using the GraphPad Prism 5 program.

SMILES | pEC50
CCc1cnc(N2CCC(n3nnc4cc(-c5ccc(-n6cnnn6)cc5)cnc43)CC2)nc1 [Example 2, 6-(4-(1H-tetrazol-1-yl)phenyl)-3-(1-(5-ethylpyrimidin-2-yl)piperidin-4-yl)-3H-[1,2,3]triazol o[4,5-b]pyridine] | > 6.30
CC(C)(C)OC(=O)N1CCC(n2ccc3cc(-c4ccc(S(C)(=O)=O)cc4)c(F)cc32)CC1 [Example 7, tert-butyl 4-(6-fluoro-5-(4-(methylsulfonyl)phenyl)-1H-indol-1-yl)piperidine-1-carboxylate] | > 7.00
CC(C)(C)OC(=O)N1CCC(n2ccc3cc(-c4ccc(S(C)(=O)=O)cc4)ccc32)CC1 [Example 10, tert-butyl 4-(5-(4-(methylsulfonyl)phenyl)-1H-indol-1-yl)piperidine-1-carboxylate] | > 6.70
CCc1cnc(N2CCC(n3ccc4cc(-c5ccc(-n6cnnn6)cc5)c(F)cc43)CC2)nc1 [Example 12, 5-(4-(1H-tetrazol-1-yl)phenyl)-1-(1-(5-ethylpyrimidin-2-yl)piperidin-4-yl)-6-fluoro-1H-indole] | > 5.70
CCc1cnc(N2CCC(n3ccc4cc(-c5ccc(C#N)c(F)c5)c(F)cc43)CC2)nc1 [Example 13, 4-(1-(1-(5-ethylpyrimidin-2-yl)piperidin-4-yl)-6-fluoro-1H-indol-5-yl)-2-fluorobenzonitrile] | > 6.30
CCc1cnc(N2CCC(n3ccc4cc(-c5ccc(C#N)cc5)c(F)cc43)CC2)nc1 [Example 14, 4-(1-(1-(5-ethylpyrimidin-2-yl)piperidin-4-yl)-6-fluoro-1H-indol-5-yl)benzonitrile] | > 6.30
CCc1cnc(N2CCC(n3ccc4cc(-c5ccc(NS(C)(=O)=O)cc5)c(F)cc43)CC2)nc1 [Example 15, N-(4-(1-(1-(5-ethylpyrimidin-2-yl)piperidin-4-yl)-6-fluoro-1H-indol-5-yl)phenyl)methanesulfonamide] | > 6.00
CC(C)(C)OC(=O)N1CCC(n2ncc3cc(-c4ccc(S(C)(=O)=O)cc4)ccc32)CC1 [Example 16, tert-butyl 4-(5-(4-(methylsulfonyl)phenyl)-1H-indazol-1-yl)piperidine-1-carboxylate] | > 6.52
CCc1cnc(N2CCC(n3ncc4cc(-c5ccc(-n6cnnn6)cc5)c(F)cc43)CC2)nc1 [Example 17, 5-(4-(1H-tetrazol-1-yl)phenyl)-1-(1-(5-ethylpyrimidin-2-yl)piperidin-4-yl)-6-fluoro-1H-indazole] | > 7.30
CCc1cnc(N2CCC(n3ncc4cc(-c5ccc(S(C)(=O)=O)cc5)c(F)cc43)CC2)nc1 [Example 18, 1-(1-(5-ethylpyrimidin-2-yl)piperidin-4-yl)-6-fluoro-5-(4-(methylsulfonyl)phenyl)-1H-indazole] | > 6.70
CC(C)c1noc(N2CCC(n3ccc4cc(-c5ccc(S(C)(=O)=O)cc5)c(F)cc43)CC2)n1 [Example 19, 5-(4-(6-fluoro-5-(4-(methylsulfonyl)phenyl)-1H-indol-1-yl)piperidin-1-yl)-3-isopropyl-1,2,4-oxadiazole] | > 7.00

More lines, now with the values ahead:

pEC50 | SMILES
> 6.52 | CCc1cnc(N2CCC(n3ccc4cc(-c5ccc(S(C)(=O)=O)cc5)ccc43)CC2)nc1 [Example 1, 1-(1-(5-ethylpyrimidin-2-yl)piperidin-4-yl)-5-(4-(methylsulfonyl)phenyl)-1H-indole]
> 6.52 | CCc1cnc(N2CCC(n3ccc4cc(-c5ccc(-n6cnnn6)cc5)ccc43)CC2)nc1 [Example 3, 5-(4-(1H-tetrazol-1-yl)phenyl)-1-(1-(5-ethylpyrimidin-2-yl)piperidin-4-yl)-1H-indole]
> 6.00 | CCc1cnc(N2CCC(n3cc(C)c4cc(-c5ccc(S(C)(=O)=O)cc5)ccc43)CC2)nc1 [Example 5, 1-(1-(5-ethylpyrimidin-2-yl)piperidin-4-yl)-3-methyl-5-(4-(methylsulfone)phenyl)-1H-indole]
> 7.00 | CCc1cnc(N2CCC(n3ccc4cc(-c5ccc(S(C)(=O)=O)cc5)c(F)cc43)CC2)nc1 [Example 6, 1-(1-(5-ethylpyrimidin-2-yl)piperidin-4-yl)-6-fluoro-5-(4-(methylsulfony)phenyl)-1H-indole]
> 6.30 | CCc1cnc(N2CCC(n3cc(Cl)c4cc(-c5ccc(S(C)(=O)=O)cc5)ccc43)CC2)nc1 [Example 8, 3-chloro-1-(1-(5-ethylpyrimidin-2-yl)piperidin-4-yl)-5-(4-(methylsulfonl)phenyl)-1H-indole]
> 6.70 | CCc1cnc(N2CCC(n3ccc4cc(-c5ccc(S(C)(=O)=O)cc5)ncc43)CC2)nc1 [Example 9, 1-(1-(5-ethylpyrimidin-2-yl)piperidin-4-yl)-5-(4-(methylsulfonyl)phenyl)-1H-pyrrolo[2,3-c]pyridine]
> 6.30 | CCc1cnc(N2CCC(n3ccc4cc(-c5ccc(S(C)(=O)=O)cc5F)ccc43)CC2)nc1 [Example 11, 1-(1-(5-ethylpyrimidin-2-yl)piperidin-4-yl)-5-(2-fluoro-4-(methylsulfony)phenyl)-1H-indole]
